Data published in patent US7531195B2, “Schisandrin B preparation” (priority 2005, dated 2009).

Tests used:
[1] = system: mitochondria of brain, heart, liver and skeletal muscle; test: Mitochondrial ATP generation capacity in various tissues of young female rats; assay type: in vivo, rat; conditions: 15 days; for ATP generation: (−) Sch B, α-LA, α-Toc at daily 10, 5 and 70 mg/kg respectively; for effect on mitochondrial ATP generation capacity in various tissues: α-LA 5 mg/kg, α-Toc 70 mg/kg daily
[2] = system: mitochondria of brain, heart, liver and skeletal muscle; test: Mitochondrial antioxidant status in various tissues of young female rats; assay type: in vivo, rat; conditions: (−) Sch B, α-LA, α-Toc at daily 10, 5 and 70 mg/kg respectively, 15 days
Procedure: The dosages were determined with reference to the equivalent amount of crude herb prescribed for human or the daily recommended intake in health supplements. The control animals received olive oil only. Twenty-four hours after the last dose, the pentobarbital-anesthetized animals were sacrificed by cardiac excision, and brain. heart, liver and skeletal muscle tissues were obtained. Tissue samples (brain, heart, liver, and skeletal muscle) were rinsed with ice-cold isotonic buffer (50 mM Tris, 0.32 M sucrose, 1 mM Na2EDTA, 0.2 mg/ml soybean trypsin inhibitor, 0.2 mg/ml bacitracine, 0.16 mg/ml benzamidine). Tissue homogenates were prepared by homogenizing 0.8 g of myocardial tissue in 8 ml ice-cold isotonic buffer and the homogenates were used for the preparation of mitochondrial fractions by differential centrifugation, as described in Chiu and Ko (2004). The mitochondrial pellets were resuspended in 1.5 ml of isotonic buffer containing 150 μl of 2 mg/ml soybean trypsin inhibitor and constituted the mitochondrial fractions. […] (St. Louis, Mo., USA). […] Aliquots (400 μl) of mitochondrial fractions were mixed with 933 μl Triton X-100 solution (0.3%, v/v, in isotonic buffer) and sonicated for 2 min on ice. The mixtures were then subjected to measurements of mitochondrial glutathione reductase (GRD), Se-glutathione peroxidase (GPX) and glutathione S-transferases (GST) activities by spectrophotometric methods, as described in Chiu et al. (2002).

SMILES: Cc1c(C)c2c(c(C)c1O)CC[C@@](C)(CCC[C@H](C)CCC[C@H](C)CCCC(C)C)O2 [α-Toc, α-tocopherol]
- ATP generation ([1]; BRAIN): 62 ± 8 percent control
- ATP generation ([1]; HEART): 95 ± 12 percent control
- ATP generation ([1]; LIVER): 83 ± 8 percent control
- ATP generation ([1]; SKELETAL MUSCLE): 80 ± 8 percent control
- effect on mitochondrial ATP generation capacity in various tissues [1]: decreased
- GPX ([2]; BRAIN): 121 ± 12 percent control
- GRD ([2]; BRAIN): 153 ± 10 percent control
- GSH ([2]; BRAIN): 119 ± 6 percent control
- GST ([2]; BRAIN): 121 ± 5 percent control
- α-Toc level ([2]; BRAIN): 139 ± 9 percent control
- GPX ([2]; HEART): 130 ± 10 percent control
- GRD ([2]; HEART): 243 ± 20 percent control
- GSH ([2]; HEART): 152 ± 9 percent control
- GST ([2]; HEART): 159 ± 7 percent control
- α-Toc level ([2]; HEART): 151 ± 5 percent control
- GPX ([2]; LIVER): 169 ± 14 percent control
- GRD ([2]; LIVER): 161 ± 5 percent control
- GSH ([2]; LIVER): 133 ± 11 percent control
- GST ([2]; LIVER): 128 ± 3 percent control
- α-Toc level ([2]; LIVER): 214 ± 31 percent control
- GPX ([2]; SKELETAL MUSCLE): 136 ± 7 percent control
- GRD ([2]; SKELETAL MUSCLE): 149 ± 8 percent control
- GSH ([2]; SKELETAL MUSCLE): 153 ± 6 percent control
- GST ([2]; SKELETAL MUSCLE): 176 ± 13 percent control
- α-Toc level ([2]; SKELETAL MUSCLE): 189 ± 11 percent control

SMILES: O=C(O)CCCCC1CCSS1 (stereo not drawn) [α-LA, α-lipoic acid]
- ATP generation ([1]; BRAIN): 72 ± 4 percent control
- ATP generation ([1]; HEART): 68 ± 9 percent control
- ATP generation ([1]; LIVER): 77 ± 5 percent control
- ATP generation ([1]; SKELETAL MUSCLE): 101 ± 1 percent control
- effect on mitochondrial ATP generation capacity in various tissues [1]: decreased
- GPX ([2]; BRAIN): 126 ± 9 percent control
- GRD ([2]; BRAIN): 131 ± 5 percent control
- GSH ([2]; BRAIN): 93 ± 2 percent control
- GST ([2]; BRAIN): 103 ± 3 percent control
- α-Toc level ([2]; BRAIN): 110 ± 6 percent control
- GPX ([2]; HEART): 105 ± 9 percent control
- GRD ([2]; HEART): 144 ± 11 percent control
- GSH ([2]; HEART): 103 ± 4 percent control
- GST ([2]; HEART): 119 ± 6 percent control
- α-Toc level ([2]; HEART): 111 ± 4 percent control
- GPX ([2]; LIVER): 159 ± 10 percent control
- GRD ([2]; LIVER): 143 ± 8 percent control
- GSH ([2]; LIVER): 117 ± 2 percent control
- GST ([2]; LIVER): 112 ± 3 percent control
- α-Toc level ([2]; LIVER): 124 ± 13 percent control
- GPX ([2]; SKELETAL MUSCLE): 117 ± 5 percent control
- GRD ([2]; SKELETAL MUSCLE): 123 ± 12 percent control
- GSH ([2]; SKELETAL MUSCLE): 154 ± 12 percent control
- GST ([2]; SKELETAL MUSCLE): 171 ± 19 percent control
- α-Toc level ([2]; SKELETAL MUSCLE): 147 ± 14 percent control
